# Results taken from patent US9877956B2, “Antiviral compounds and methods of use thereof” (Trana Discovery, Inc., priority 2014, dated 2018).
# Values joined by “and” are separate entries in the source; they are usually repeats but may differ in a detail not shown here. Equal values may be shown once.
# Legend:
# Format in all cases: cell-based
# [1] = system: HIV-1 92/HT/599; experiment: HIV-1 92/HT/599 replication in human PBMCs, reverse transcriptase in culture supernatants (RLU)
# Experimental: (§1) In these studies, PHA-P stimulated PBMCs from three donors were pooled together and re-suspended in fresh tissue culture medium at 1×10^6 cells/mL and plated in the interior wells of a 96 well round bottom microplate at 50µl/well. A 100µL volume of 9 concentrations of compound serially diluted were transferred to the round-bottom 96 well plate containing the cells in triplicate. Fifty microliters (µL) of HIV-1 at a pre-determined dilution was added. Each plate contained cell control wells and virus control wells in parallel with the experimental wells. After 7 days in culture, efficacy was evaluated by measuring the reverse transcriptase in the culture supernatants and the cells were stained with the tetrazolium dye XTT to evaluate cytotoxicity.
# [2] = system: HUMAN PBMCS; experiment: Cytotoxicity in human PBMCs (XTT); conditions: for TOXICITY VALUES (XTT - O.D. @ 450/650 nm), SAMPLE: individual samples
# Experimental: as §1
# [3] = Cytotoxicity in human PBMCs (XTT); conditions: PHA-P stimulated PBMCs pooled from three donors; human PBMCs, XTT
# Experimental: as §1
compound,measurement,setting,value
"Cc1cn([C@H]2C[C@H](N=[N+]=[N-])[C@@H](CO)O2)c(=O)[nH]c1=O [AZT, Zidovudine, reference compound]",% Virus Control,[1]; 0.003 μM,28.53%
same,Antiviral Test Values Mean RLU,[1]; 0.003 μM,5503.7 RLU
same,% Virus Control,[1]; 0.01 μM,10.36%
same,Antiviral Test Values Mean RLU,[1]; 0.01 μM,1999.0 RLU
same,% Virus Control,[1]; 0.032 μM,13.16%
same,Antiviral Test Values Mean RLU,[1]; 0.032 μM,2538.7 RLU
same,% Virus Control,[1]; 0.32 μM,0.99%
same,Antiviral Test Values Mean RLU,[1]; 0.32 μM,190.7 RLU
same,% Virus Control,[1]; 1 μM,0.56%
same,Antiviral Test Values Mean RLU,[1]; 1 μM,112.7 RLU
same,EC 25%,"[1]; HIV-1 92/HT/599, human PBMCs",<3 nM
same,EC 95%,"[1]; HIV-1 92/HT/599, human PBMCs",99 nM
same,EC50,"[1]; Human immunodeficiency virus 1, PBMC, read-out: EC50 (EC 50%), HIV-1 92/HT/599, human PBMCs",< 3 nM
same,% Cell Viability,[2]; 0.003 μM,114.74%
same,"TOXICITY VALUES (XTT - O.D. @ 450/650 nm), SAMPLE",[2]; 0.003 μg/ml (so in the source),1.2555 O.D. and 1.2949 O.D. and 1.3058 O.D.
same,% Cell Viability,[2]; 0.01 μM,123.74%
same,"TOXICITY VALUES (XTT - O.D. @ 450/650 nm), SAMPLE",[2]; 0.01 μg/ml (so in the source),1.2369 O.D. and 1.6369 O.D.
same,% Cell Viability,[2]; 0.032 μM,111.47%
same,"TOXICITY VALUES (XTT - O.D. @ 450/650 nm), SAMPLE",[2]; 0.032 μg/ml (so in the source),1.2990 O.D. and 1.2908 O.D. and 1.1569 O.D.
same,% Cell Viability,[2]; 0.32 μM,92.20%
same,"TOXICITY VALUES (XTT - O.D. @ 450/650 nm), SAMPLE",[2]; 0.32 μg/ml (AZT table),0.9607 O.D. and 0.9984 O.D. and 1.1398 O.D.
same,% Cell Viability,[2]; 1 μM,81.66%
same,"TOXICITY VALUES (XTT - O.D. @ 450/650 nm), SAMPLE",[2]; 1 μg/ml (AZT table),1.1224 O.D. and 0.5742 O.D. and 1.0479 O.D.
same,TC 25%,"[2]; human PBMCs, XTT",>1000 nM
same,TC 95%,"[2]; human PBMCs, XTT",>1000 nM
same,CC50 at 7 days,[3],> 1000 nM
